Laboratory results taken from patent US9765300B2, “Hepatic cell lines and stem-like cells, methods of making and using the same” (priority 2014, dated 2017).
Each block holds one compound with its values, some of them ahead of it.

Columns and labels:
Hepa-RP = assay: Cholestatic drug screening: alterations of bile saccular canaliculi in Hepa-RP; type: cell-based, human; details: Hepa-RP at passage 29 (10 passages with a corticoid-free medium)
Hepa-SC cells = details: 10 μM; cited from earlier work
HEPARG® cells = assay: Comparative study of epigenetic modulators for HEPARG reprogramming to Hepa-SC (toxicity in culture); type: cell-based, human; details: even at low concentration, in our culture conditions
Excerpt: • Step 1: Culturing the parental cells in a culture medium that has been modified in order to eliminate all factors supporting differentiation processes during a 2-passage culture period; • Step 2: Inducing mechanical stress such as shape constraint, onto the cells in order to generate a reprogramming signal toward stemness that should be associated with occurrence of a mechano-transduction signaling in all the cells in a synchronized manner, resulting in expression of a “stem cell signature” at the genome level; • Step 3: Inducing the stability of this stem cell fate by epigenetic mechanism, for instance by exposing the cells to methylation/acetylation modulators such as HDAC molecules. Epigenetic modifications refer to mitotically heritable changes in gene expression that are not coded in the DNA sequence itself (Levenson J M, Sweatt J D., 2005). The chosen epigenetic molecule should neither alter cell proliferation activity nor provoke toxicity effects and/or apoptotic induction. 5-azacytidine inhibits DNA methylation. It has been preferentially chosen for HEPARG® reprogramming to Hepa-SC stem-like cells after comparative study with Bix 01294, a small molecule known to inhibit the histone H3 methylation. […]

SMILES: CN(C)CCCN1c2ccccc2Sc2ccc(Cl)cc21 [Chlorpromazine]
cholestatic effect on the bile saccular canaliculi (alteration) (Hepa-RP): constriction

SMILES: Nc1ncn([C@H]2C[C@H](O)[C@@H](CO)O2)c(=O)n1 [5-aza-2′-deoxycytidine]
inhibition of cell proliferation (Hepa-SC cells): does not inhibit cell proliferation
visible cell toxicity (Hepa-SC cells): does not induce visible cell toxicity

SMILES: COc1cc2nc(N3CCCN(C)CC3)nc(NC3CCN(Cc4ccccc4)CC3)c2cc1OC [Bix 01294]
toxicity compared with 5-azacytidine (HEPARG® cells): much more toxic

Second part, the compound after the results:

induction of three distinct CYP450 enzymes activity (CYP450 enzymes): induced
SMILES: C[S+](C)[O-] [DMSO]

cholestatic effect on the bile saccular canaliculi (alteration) (Hepa-RP): dilatation
SMILES: O=S(=O)(c1cccc2cnccc12)N1CCCNCC1 [Fasudil]
